ChEMBL document CHEMBL1909046, “DrugMatrix in vitro pharmacology data”
*1 amine or outer side, *2 acyl side, *3 side chain or, on linkers, in order; H or OH if unused. Where a SMILES comes first, the peptide text is derived from it. Bridges are numbered along the chain shown (N, C = ends). Roman numbers before positions name the chains, in order. [ ]: non-standard residue; d: D form. Actinocin(1to9) = Cc1c2oc3c(C)ccc(C(=O)[*:2])c3nc-2c(C(=O)[*:1])c(N)c1=O; NMeV = CN[C@H](C(=O)O)C(C)C; Sar = CNCC(=O)O

Experiments:
[1] = target: Vascular endothelial growth factor receptor 1 (Homo sapiens, UniProt P17948); assay type: cell-based; settings: huvec; also: in other assays of this panel Not Active means under 50% inhibition at 10 µM
[2] = target: Kappa-type opioid receptor (Homo sapiens, UniProt P41145); assay: DRUGMATRIX: Opiate kappa (OP2, KOP) radioligand binding (ligand: [3H] Diprenorphine); assay type: cell membranes, HEK293, Membrane; settings: hek293; Not Active = under 50% inhibition at 10 µM
[3] = DRUGMATRIX: GABAA, Chloride Channel, TBOB radioligand binding (ligand: [3H] TBOB); assay type: cell membranes, Rattus norvegicus, Wistar, Cerebral cortex, Membrane; settings: Not Active = under 50% inhibition at 10 µM
[4] = target: T1, Type-2 angiotensin II receptor (Homo sapiens, UniProt P50052); assay type: cell-based; settings: cho-k1; also: in other assays of this panel Not Active means under 50% inhibition at 10 µM
T1 sequence (P50052 whole entry): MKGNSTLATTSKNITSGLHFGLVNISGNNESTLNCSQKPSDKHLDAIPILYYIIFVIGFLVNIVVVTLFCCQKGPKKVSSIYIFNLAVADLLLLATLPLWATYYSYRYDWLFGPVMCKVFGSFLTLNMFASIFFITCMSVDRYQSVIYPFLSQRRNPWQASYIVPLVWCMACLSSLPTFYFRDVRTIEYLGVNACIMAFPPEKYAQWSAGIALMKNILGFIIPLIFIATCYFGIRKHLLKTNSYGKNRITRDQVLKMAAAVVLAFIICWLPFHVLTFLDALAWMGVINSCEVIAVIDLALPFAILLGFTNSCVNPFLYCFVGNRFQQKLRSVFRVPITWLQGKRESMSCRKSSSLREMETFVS

[5] = target: T2, 5-hydroxytryptamine receptor 2C (Homo sapiens, UniProt P28335); assay: DRUGMATRIX: Serotonin (5-Hydroxytryptamine) 5-HT2C radioligand binding (ligand: [3H] Mesulergine); assay type: cell membranes, CHO-K1, Membrane; settings: cho-k1; Not Active = under 50% inhibition at 10 µM
T2 sequence (P28335 whole entry): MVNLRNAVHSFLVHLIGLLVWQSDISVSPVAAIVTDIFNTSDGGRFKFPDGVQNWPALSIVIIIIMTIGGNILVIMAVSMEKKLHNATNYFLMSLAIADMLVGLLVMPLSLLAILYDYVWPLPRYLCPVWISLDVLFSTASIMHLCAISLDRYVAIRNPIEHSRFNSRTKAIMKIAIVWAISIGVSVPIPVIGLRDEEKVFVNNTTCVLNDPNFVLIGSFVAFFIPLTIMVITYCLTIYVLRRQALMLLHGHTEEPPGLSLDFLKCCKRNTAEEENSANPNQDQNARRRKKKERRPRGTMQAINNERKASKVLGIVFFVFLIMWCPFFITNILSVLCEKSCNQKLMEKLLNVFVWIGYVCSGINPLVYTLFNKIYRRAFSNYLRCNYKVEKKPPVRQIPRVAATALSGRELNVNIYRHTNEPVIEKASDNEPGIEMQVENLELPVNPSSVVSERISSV

[6] = target: D(3) dopamine receptor (Homo sapiens, UniProt P35462); assay: DRUGMATRIX: Dopamine D3 radioligand binding (ligand: [3H] Spiperone); assay type: cell membranes, CHO, Membrane; settings: cho
[7] = target: T3, Progesterone receptor (Bos taurus, UniProt Q690N0); assay: DRUGMATRIX: Progesterone radioligand binding (ligand: [3H] R-5020); assay type: tissue-based, Uterus; settings: Not Active = under 50% inhibition at 10 µM; for Ki: read-out: Ki
T3 sequence (Q690N0 whole entry): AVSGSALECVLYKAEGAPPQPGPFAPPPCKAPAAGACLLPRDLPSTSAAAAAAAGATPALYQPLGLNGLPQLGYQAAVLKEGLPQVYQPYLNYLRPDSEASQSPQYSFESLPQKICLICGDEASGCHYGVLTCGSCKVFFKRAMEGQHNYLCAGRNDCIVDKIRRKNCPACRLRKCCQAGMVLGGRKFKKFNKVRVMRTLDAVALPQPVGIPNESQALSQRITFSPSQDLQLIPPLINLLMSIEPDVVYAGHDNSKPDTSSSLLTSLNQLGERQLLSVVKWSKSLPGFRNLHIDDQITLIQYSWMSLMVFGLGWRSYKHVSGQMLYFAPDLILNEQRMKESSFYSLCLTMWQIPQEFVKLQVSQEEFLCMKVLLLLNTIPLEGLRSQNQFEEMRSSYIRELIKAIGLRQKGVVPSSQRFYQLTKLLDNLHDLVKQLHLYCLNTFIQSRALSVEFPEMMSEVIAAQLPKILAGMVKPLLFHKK

Vascular endothelial growth factor receptor 1, sequence (P17948 whole entry): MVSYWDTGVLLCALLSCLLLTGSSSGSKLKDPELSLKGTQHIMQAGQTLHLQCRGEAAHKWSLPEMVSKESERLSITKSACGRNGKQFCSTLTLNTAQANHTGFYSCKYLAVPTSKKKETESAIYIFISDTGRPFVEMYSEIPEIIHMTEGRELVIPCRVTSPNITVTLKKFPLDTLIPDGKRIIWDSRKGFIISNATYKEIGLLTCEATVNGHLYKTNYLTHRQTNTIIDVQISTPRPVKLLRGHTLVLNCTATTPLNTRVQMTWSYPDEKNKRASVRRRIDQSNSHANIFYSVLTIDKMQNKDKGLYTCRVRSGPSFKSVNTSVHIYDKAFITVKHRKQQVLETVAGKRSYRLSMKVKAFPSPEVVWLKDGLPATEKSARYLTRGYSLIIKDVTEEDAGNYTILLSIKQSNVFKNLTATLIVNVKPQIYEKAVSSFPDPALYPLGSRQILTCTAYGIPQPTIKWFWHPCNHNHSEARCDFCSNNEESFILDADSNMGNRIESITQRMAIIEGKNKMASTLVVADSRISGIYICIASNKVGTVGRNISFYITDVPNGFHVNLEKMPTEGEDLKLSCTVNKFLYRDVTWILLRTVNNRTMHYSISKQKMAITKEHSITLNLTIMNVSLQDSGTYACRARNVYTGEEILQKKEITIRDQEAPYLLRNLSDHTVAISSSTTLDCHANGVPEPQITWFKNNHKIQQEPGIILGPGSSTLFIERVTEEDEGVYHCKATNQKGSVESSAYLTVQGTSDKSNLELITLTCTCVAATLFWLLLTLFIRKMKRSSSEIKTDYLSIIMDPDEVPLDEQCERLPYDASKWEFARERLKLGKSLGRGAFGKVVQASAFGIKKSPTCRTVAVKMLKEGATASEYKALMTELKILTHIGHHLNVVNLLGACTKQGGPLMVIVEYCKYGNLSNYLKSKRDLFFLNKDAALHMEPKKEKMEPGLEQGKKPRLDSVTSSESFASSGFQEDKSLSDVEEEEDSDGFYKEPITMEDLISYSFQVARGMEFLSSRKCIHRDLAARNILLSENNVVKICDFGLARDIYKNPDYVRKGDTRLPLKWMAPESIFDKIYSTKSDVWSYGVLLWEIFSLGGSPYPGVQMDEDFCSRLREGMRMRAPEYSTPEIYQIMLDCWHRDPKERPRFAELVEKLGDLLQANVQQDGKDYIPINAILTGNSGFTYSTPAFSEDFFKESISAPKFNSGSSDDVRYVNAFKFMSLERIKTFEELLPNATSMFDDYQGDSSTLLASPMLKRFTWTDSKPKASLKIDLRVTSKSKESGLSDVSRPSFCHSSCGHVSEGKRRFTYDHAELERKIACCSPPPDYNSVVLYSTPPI
Kappa-type opioid receptor, sequence (P41145 whole entry): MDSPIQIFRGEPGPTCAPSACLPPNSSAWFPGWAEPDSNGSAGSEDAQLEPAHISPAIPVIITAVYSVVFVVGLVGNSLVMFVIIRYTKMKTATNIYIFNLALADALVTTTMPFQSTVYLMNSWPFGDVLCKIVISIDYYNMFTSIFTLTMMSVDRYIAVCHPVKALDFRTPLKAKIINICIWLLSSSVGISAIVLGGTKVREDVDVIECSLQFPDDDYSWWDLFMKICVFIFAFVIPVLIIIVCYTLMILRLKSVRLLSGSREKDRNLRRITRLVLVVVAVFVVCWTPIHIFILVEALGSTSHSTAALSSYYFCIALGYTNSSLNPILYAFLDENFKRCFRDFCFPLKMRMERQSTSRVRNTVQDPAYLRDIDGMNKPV
D(3) dopamine receptor, sequence (P35462 whole entry): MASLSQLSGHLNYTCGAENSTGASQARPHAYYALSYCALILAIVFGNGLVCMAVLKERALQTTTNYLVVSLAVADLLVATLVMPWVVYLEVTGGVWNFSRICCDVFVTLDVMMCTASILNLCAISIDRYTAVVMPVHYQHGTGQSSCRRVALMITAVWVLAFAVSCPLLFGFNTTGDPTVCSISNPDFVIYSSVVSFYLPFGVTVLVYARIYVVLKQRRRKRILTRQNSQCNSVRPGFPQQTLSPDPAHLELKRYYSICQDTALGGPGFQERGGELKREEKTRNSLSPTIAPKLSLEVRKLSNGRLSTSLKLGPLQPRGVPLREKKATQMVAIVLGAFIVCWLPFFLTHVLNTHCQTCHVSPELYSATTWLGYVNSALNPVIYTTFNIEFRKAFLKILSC

Row | Compound | IC50 [1] | IC50 [2] | IC50 [3] | Ki [3] | IC50 [4] | IC50 [5] | IC50 [6] | IC50 [7] | IC50 ([7]; read-out: IC50) [µM] | Ki [7] [µM]
1 | Cc1ccccc1N1C(=O)c2cc(S(N)(=O)=O)c(Cl)cc2NC1C (stereo unspecified) [METOLAZONE] | Not Active | Not Active | Not Active | Not Active | Not Active | Not Active | Not Active | Not Active |  | 
2 | C1CCC(C(CC2CCCCN2)C2CCCCC2)CC1 (stereo unspecified) [PERHEXILINE] | Not Active | Not Active | Not Active | Not Active | Not Active | Not Active | Not Active | Not Active |  | 
3 | CC(C)CN(C[C@@H](O)[C@H](Cc1ccccc1)NC(=O)O[C@H]1CCOC1)S(=O)(=O)c1ccc(N)cc1 | Not Active | Not Active | Not Active | Not Active | Not Active | Not Active | Not Active | Not Active |  | 
4 | Nc1nc2c(ncn2CCC(CO)CO)c(=O)[nH]1 [PENCICLOVIR] | Not Active | Not Active | Not Active | Not Active | Not Active | Not Active | Not Active | Not Active |  | 
5 | CN(C)C(=O)Oc1cc(OC(=O)N(C)C)cc(C(O)CNC(C)(C)C)c1 (stereo unspecified) [BAMBUTEROL] | Not Active | Not Active | Not Active | Not Active | Not Active | Not Active | Not Active | Not Active |  | 
6 | Nc1nc(N)nc(-c2cc(Cl)ccc2Cl)n1.O=C(O)/C=C\C(=O)O [IRSOGLADINE MALEATE] | Not Active | Not Active | Not Active | Not Active | Not Active | Not Active | Not Active | Not Active |  | 
7 | Cc1ccc(-c2cc(C(F)(F)F)nn2-c2ccc(S(N)(=O)=O)cc2)cc1 [CELECOXIB] | Not Active | Not Active | Not Active | Not Active | Not Active | Not Active | Not Active |  | 18.1 | 2.36
8 | CCC1(c2ccc(N)cc2)CCC(=O)NC1=O (stereo unspecified) [AMINOGLUTETHIMIDE] | Not Active | Not Active | Not Active | Not Active | Not Active | Not Active | Not Active | Not Active |  | 
9 | C[C@H](CS)C(=O)N1CCC[C@H]1C(=O)O [CAPTOPRIL] | Not Active | Not Active | Not Active | Not Active | Not Active | Not Active | Not Active | Not Active |  | 
10 | Clc1cccc(Cl)c1NC1=NCCN1 [CLONIDINE] | Not Active | Not Active | Not Active | Not Active | Not Active | Not Active | Not Active | Not Active |  | 
11 | CCCCN1CCCC[C@H]1C(=O)Nc1c(C)cccc1C [LEVOBUPIVACAINE] | Not Active | Not Active | Not Active | Not Active | Not Active | Not Active | Not Active | Not Active |  | 
12 | OC(Cn1cncn1)(Cn1cncn1)c1ccc(F)cc1F [FLUCONAZOLE] | Not Active | Not Active | Not Active | Not Active | Not Active | Not Active | Not Active | Not Active |  | 
13 | CCCC1O[C@@H]2C[C@H]3[C@@H]4CCC5=CC(=O)C=C[C@]5(C)[C@H]4[C@@H](O)C[C@]3(C)[C@]2(C(=O)CO)O1 (stereo partly specified) [BUDESONIDE] | Not Active | Not Active | Not Active | Not Active | Not Active | Not Active | Not Active |  | 0.21 | 0.027
14 | Cc1cc(C2CCCCC2)n(O)c(=O)c1 [CICLOPIROX] | Not Active | Not Active | Not Active | Not Active | Not Active | Not Active | Not Active | Not Active |  | 
15 | Cc1c(C)c2c(c(C)c1O)CC[C@@](C)(CCC[C@H](C)CCC[C@H](C)CCCC(C)C)O2 [ALPHA-TOCOPHEROL] | Not Active | Not Active | Not Active | Not Active | Not Active | Not Active | Not Active | Not Active |  | 
16 | Cc1c2oc3c(C)ccc(C(=O)N[C@@H]4C(=O)N[C@H](C(C)C)C(=O)N5CCC[C@H]5C(=O)N(C)CC(=O)N(C)[C@@H](C(C)C)C(=O)O[C@@H]4C)c3nc-2c(C(=O)N[C@@H]2C(=O)N[C@H](C(C)C)C(=O)N3CCC[C@H]3C(=O)N(C)CC(=O)N(C)[C@@H](C(C)C)C(=O)O[C@@H]2C)c(N)c1=O [DACTINOMYCIN] (I: T[dV]P[Sar][NMeV] / II: T[dV]P[Sar][NMeV]; ester I:1-I:C, II:1-II:C; linker I:N-II:N via Actinocin(1to9)) | Not Active | Not Active | Not Active | Not Active | Not Active | Not Active | Not Active | Not Active |  | 
17 | CC1(C)S[C@@H]2[C@H](NC(=O)Cc3ccccc3)C(=O)N2[C@H]1C(=O)O [PENICILLIN G] | Not Active | Not Active | Not Active | Not Active | Not Active | Not Active | Not Active | Not Active |  | 
18 | C[C@H](CCC(=O)O)[C@H]1CC[C@H]2[C@@H]3[C@H](O)C[C@@H]4C[C@H](O)CC[C@]4(C)[C@H]3C[C@H](O)[C@]12C [CHOLIC ACID] | Not Active | Not Active | Not Active | Not Active | Not Active | Not Active | Not Active | Not Active |  | 
19 | CN(Cc1ccc(C(C)(C)C)cc1)Cc1cccc2ccccc12 [BUTENAFINE] | Not Active | Not Active | Not Active | Not Active | Not Active | Not Active | Not Active | Not Active |  | 
20 | N=C(N)NCCN1CCCCCCC1 [GUANETHIDINE] | Not Active | Not Active | Not Active | Not Active | Not Active | Not Active | Not Active | Not Active |  | 
21 | C[C@H]1O[C@@H](O[C@H]2[C@@H](O)C[C@H](O[C@H]3[C@@H](O)C[C@H](O[C@H]4CC[C@@]5(C)[C@H](CC[C@@H]6[C@@H]5C[C@@H](O)[C@]5(C)[C@@H](C7=CC(=O)OC7)CC[C@]65O)C4)O[C@@H]3C)O[C@@H]2C)C[C@H](O)[C@@H]1O [DIGOXIN] | Not Active | Not Active | Not Active | Not Active | Not Active | Not Active | Not Active | Not Active |  | 
22 | CCCCc1nc(Cl)c(CO)n1Cc1ccc(-c2ccccc2-c2nnn[nH]2)cc1 [LOSARTAN] | Not Active | Not Active | Not Active | Not Active | Not Active | Not Active | Not Active | Not Active |  | 
23 | Nc1c(Br)cc(Br)cc1CN[C@H]1CC[C@H](O)CC1 [AMBROXOL] | Not Active | Not Active | Not Active | Not Active | Not Active | Not Active | Not Active | Not Active |  | 
